Experimental findings from patent US6583132B1, “Oxidant scavengers” (Duke University, priority 1993, dated 2003) are described below.

For one assay, the system named is rat cortical cells. In words: Neurotoxicity (LDH release) in cortical cell culture. Type of assay: cell-based. As to the method:
(§1) Tissue culture: Mixed neuronal and glial cultures were prepared from embryonic day-18 rat cerebral cortices (Sprague-Dawley, Zivic Miller). Briefly, the cerebral cortices were dissected and enzymatically dissociated by incubation in Ca^++-, Mg^++-free Hank's balanced salt solution (HBSS) supplemented with 10 mM HEPES and 0.25% trypsin for 20 min. at 37° C. The tissue was rinsed and dispersed into single cell suspension by gentle passage through a fire polished Pasteur pipette. The cell suspension was centrifuged and resuspended in Minimum Essential Media (MEM), containing Earle's salts supplemented with 3 g/L glucose, 5% horse serum and 5% fetal bovine serum (growth media). The cells were plated in poly-D-lysine-coated multi-well plates: 12-well plates for aconitase measurement, and 24 well plates for toxicity experiments. Cells were maintained at 37° C. in a humidified incubator with 5% CO2/95% air in growth media. Media was not replaced so as to reduce glial overgrowth and neuronal loss. Mature cells (14-17 days in vitro) were used for all experiments.
(§2) Cell treatment: The growth media was replaced with MEM supplemented with 25 mM glucose (MEM-g). For both neurotoxicity studies and aconitase measurement, cells were incubated in the designated treatment for the indicated length of time at 37° C. Unless otherwise specified, antagonists or SOD-mimetics were added 15 min. prior to agonists. For measurement of neurotoxicity, cells were incubated with treatments for 18 hr at 37° C. in MEM-g. To access the ability of antagonists to inhibit acute NMDA toxicity or rescue cells from an ongoing NMDA insult, an alternate paradigm of NMDA treatment was used in addition to the one describe above. In this paradigm, growth media was replaced with HBSS^+ (Ca^++-, Mg^++-free Hank's Balanced Salt Solution supplemented with 2 mM CaCl2, 1 mM NaHCO3, 10 mM HEPES and 5 μM glycine), cells were treated with vehicle or 100 μM NMDA for 15 min. after which HBSS^+ was replaced with MEM-g and cells were returned to the incubator for 18 additional hrs. Antagonsists or SOD-mimetics were added to the cells 15 min. before NMDA exposure or 15, 30 or 60 min. following final media replacement. For determination of Ca^++-dependence, cells were incubated in HBSS^+ with no added Ca^++. When kainate (KA) was used as an agonist, 100 μM D-APV was routinely included to block secondary NMDA receptor activation. Catalase (100 U/ml) was always included when xanthine plus xanthine oxidase (X+XO) was used as a treatment to rule out the contribution of hydrogen peroxide.
Neurotoxicity studies: Neurotoxicity was determined by the measurement of LDH released in the supernatant media as previously described (Patel et al, Toxicol. Appl. Pharmacol. 115:124 (1991) and Neurotoxicology 14:35 (1992)). LDH was measured by the method of Vassault, Lactate dehydrogenase. In: Methods of Enzymatic Analysis, Bergmeyer HU (ed), Verlag Chemie, Weinheim, pp. 118-126 (1983). Additionally, cell death was confirmed with ethidium-1 homodimer (EthD-1). Briefly, the cells were washed with HBSS, loaded with 20 μM EthD-1 for 30 min,. rinsed and viewed through fluorescence optics. The number of dead cells labeled with EthD-1 were counted in 4-6 randomly selected fields, the numbers averaged to give an estimate of cell death and the experiment was repeated 3 times.
Background: LDH leaks from cells whose membrane has failed.

The target of another assay is T1, xanthine oxidase (Bos taurus, UniProt P80457).
T1 construct: purchased Boehringer Mannheim
Put plainly: Inhibition of xanthine oxidase. In kind it is biochemical. The following applies: for Ki: pH 10, 25° C., 1 nM xanthine oxidase. As to the method:
In a first study, assays were performed in a 1 ml quartz cuvette containing 50 mM carbonate buffer, pH 10, 0.1 mM EDTA, 1 nM xanthine oxidase (Boehringer Mannheim) at 25° C. Xanthine oxidase activity was measured spectrophotometrically by following the […] over time at 295 nm. Four concentrations of xanthine (25, 50, 250, 500 μM) and 2 concentrations of MnTBAP (5, 10 μM) were used. Two inhibition constants were then derived from the curve's intercepts (Kii=5.5 μM) and slopes (Kis=15 μM).

Another assay deals with J774 macrophages. In words: Mitochondrial respiration (MTT) in J774 macrophages. In kind it is cell-based. As to the method: Cell culture: J774 macrophages were cultured in DMEM medium, supplemented with L-glutamine (3.5 mmol/L) and 10% fetal calf serum. Cells were cultured in 96-well plates (200 μl medium/well) until confluence. To induce the inducible isoform of nitric oxide synthase (iNOS), fresh culture medium containing E. coli LPS (011:B4, 10 μg/ml) alone or in combination with murine γ-interferon (γ-IFN, 10 U/ml) was added in the presence or absence of the NOS inhibitor, the SOD mimetic of the combination of the two compounds for 24 h. Moreover, cells were exposed to the NO donor compounds S-nitroso-N-acetyl-DL-penicillamine (SNAP) (3 mM) and diethylamine:NO NONOate (DNO) (3 mM) for 24 h or to authentic peroxynitrite (1 mM) for 1 h). Nitride/nitrate concentration in the medium and mitochondrial respiration were then measured as described below.
Measurement of mitochondrial respiration: Cell respiration was assessed by the mitochondrial-dependent reduction of 3-(4,5-dimethylthiazol-2-yl)-2,5-diphenyltetrazolium bromide (MTT) to formazan. Cells in 96-well plates were incubated at 37° C. with MTT (0.2 mg/ml) for 1 hour. Culture medium was removed by aspiration and the cells were solubilized in DMSO (100 μl). The extent of reduction of MTT to formazan within cells was quantitated by the measurement of OD550. All measurements were corrected for the interference of MnTBAP at this wavelength.

In assay [1] the test system is Rat pulmonary epithelial cell cultures (L2). Put plainly: Paraquat-induced injury of L2 cells, LDH release. Type of assay: cell-based. The settings on record: 100 μM; Paraquat 2.5 mM, 48 hours.
The subject of another assay is aconitase. In words: Aconitase activity in cortical cell lysates. In kind it is cell-based, rat. The settings on record: 200 μM MnTBAP. As to the method:
as §1, §2
Aconitase measurement: For the measurement of aconitase, following treatment with agents, media was removed and cells lysed in ice-cold 50 mM, Tris/HCl, pH 7.4 containing 0.6 mM MnCl2, 1 mM L-cysteine, 1 mM citrate and 0.5% Triton-X 100. The aconitase activity of cell lysates was measured spectrophotometrically by monitoring the formation of cis-aconitate from isocitrate at 240 nm in 50 mM Tris/HCl, pH 7.4, containing 0.6 mM MnCl2 and 20 mM isocitrate at 25° C. (Kreb and Holzach, Biochem. J. 52:527 (1952); Gardner and Fridovich, J. Biol. Chem. 267:8757 (1992)). […] Aconitase activity in cortical cell lysates was inhibited by 0.1 mM potassium ferricyanide or by boiling of sample.

Like-named read-outs stand apart in the source and are kept apart here.

T1 sequence (P80457 whole entry): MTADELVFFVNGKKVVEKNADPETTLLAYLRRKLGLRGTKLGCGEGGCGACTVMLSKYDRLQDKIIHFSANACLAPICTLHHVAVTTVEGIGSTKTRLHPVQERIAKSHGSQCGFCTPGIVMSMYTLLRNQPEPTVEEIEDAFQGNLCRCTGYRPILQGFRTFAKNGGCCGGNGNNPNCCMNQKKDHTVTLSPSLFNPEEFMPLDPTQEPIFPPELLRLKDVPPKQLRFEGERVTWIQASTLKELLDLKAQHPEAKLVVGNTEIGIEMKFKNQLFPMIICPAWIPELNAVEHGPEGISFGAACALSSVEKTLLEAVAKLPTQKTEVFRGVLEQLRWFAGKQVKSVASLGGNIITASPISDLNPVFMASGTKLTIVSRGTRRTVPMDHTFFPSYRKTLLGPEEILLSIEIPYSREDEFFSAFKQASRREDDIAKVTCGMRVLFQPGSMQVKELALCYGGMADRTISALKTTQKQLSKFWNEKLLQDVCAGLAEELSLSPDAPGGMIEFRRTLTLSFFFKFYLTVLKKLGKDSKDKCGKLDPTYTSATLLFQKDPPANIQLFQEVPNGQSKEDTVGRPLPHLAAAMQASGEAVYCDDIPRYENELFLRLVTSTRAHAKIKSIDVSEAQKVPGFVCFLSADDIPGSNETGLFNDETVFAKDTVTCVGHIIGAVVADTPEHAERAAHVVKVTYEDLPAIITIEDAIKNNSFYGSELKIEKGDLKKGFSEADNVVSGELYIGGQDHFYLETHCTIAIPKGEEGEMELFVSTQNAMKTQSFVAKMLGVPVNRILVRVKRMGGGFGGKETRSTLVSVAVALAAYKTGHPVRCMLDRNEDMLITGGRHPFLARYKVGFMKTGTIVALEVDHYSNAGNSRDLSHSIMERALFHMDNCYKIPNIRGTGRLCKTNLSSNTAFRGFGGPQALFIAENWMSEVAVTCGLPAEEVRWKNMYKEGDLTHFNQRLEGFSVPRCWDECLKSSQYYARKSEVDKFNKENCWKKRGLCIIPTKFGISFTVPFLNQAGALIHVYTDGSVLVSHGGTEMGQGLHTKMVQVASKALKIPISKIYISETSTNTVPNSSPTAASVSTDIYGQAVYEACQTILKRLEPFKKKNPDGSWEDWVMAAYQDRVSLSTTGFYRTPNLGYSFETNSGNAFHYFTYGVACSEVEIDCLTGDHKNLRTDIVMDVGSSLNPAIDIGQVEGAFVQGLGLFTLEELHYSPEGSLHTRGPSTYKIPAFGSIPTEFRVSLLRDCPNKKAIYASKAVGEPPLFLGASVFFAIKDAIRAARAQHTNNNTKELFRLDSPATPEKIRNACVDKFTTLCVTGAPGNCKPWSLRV

Turning to “Mn(III) tetrakis (4-benzoic acid)porphyrin [MnTBAP]”, the “PQ^++-, NMDA- and KA-mediated cell death (LDH release)” value in the assay with rat cortical cells (200 μM MnTBAP, 18 hr) was “markedly inhibited”. In the assay on rat cortical cells (200 μM MnTBAP, 18 hr), the “shift of concentration-response curve for NMDA (LDH)” value is recorded as “complete protection at low concentrations of NMDA”. Further, the “reduction of LDH release” value in the assay on rat cortical cells (200 μM added 30 min. after 15 min. 100 μM NMDA) was determined as 30%; in the assay with rat cortical cells (200 μM added 60 min. after 15 min. 100 μM NMDA) it was 25%; with rat cortical cells (condition "pre": 15 min. prior to and during 15 min. 100 μM NMDA, measured 18 hr. later) it was 25%; in the assay with rat cortical cells (condition "pre+post", 100 μM NMDA 15 min.) it was 51%. Moreover, in the assay with rat cortical cells (added 15 min. after 15 min. 100 μM NMDA, 200 μM MnTBAP, 10 μM MK801), the “reduction of LDH release / protective effect” value is 38%. Also, at xanthine oxidase, the “manner of inhibition of xanthine oxidase” value was “non-competitive”. The values for the Ki at xanthine oxidase (read-out: Kii (inhibition constant from intercepts)) and on xanthine oxidase (read-out: Kis (inhibition constant from slopes)) were 5.5 µM and 15 µM, respectively. Besides, in the assay with J774 macrophages (1 mM peroxynitrite, 1 h), the “suppression of mitochondrial respiration by peroxynitrite” value was “partially and dose dependently prevented”. In the assay with J774 macrophages (LPS-treated and LPS and IFN-treated cells, 24 h), the “immunostimulation-induced suppression of mitochondrial respiration” value is listed as “dose-dependent, partial restoration”. Besides, in the assay on J774 macrophages (SNAP, DNO 3 mM, 24 h), the “suppression of mitochondrial respiration by NO donors SNAP and DNO” value was “partially and dose dependently prevented”. In assay [1], the “paraquat-induced LDH release” value is “decrease paraquat-induced LDH release”. Further, the “PQ^++-, NMDA- and KA-mediated decreases of aconitase activity” value in the assay with aconitase is given as “markedly inhibited”.
